The values that follow are results of earlier work, collected in US20040243224A1, “Methods and compositions for inhibiting narrowing in mammalian vascular pathways” (Medtronic Vascular, Inc., priority 2003, published 2004).

Common to all, as to settings: stated as known in the art, no data
One series concerns Tetrahymena furgasoni.
In a further series the test system is Ustilago maydis.
Series [1] deals with laboratory tumor cell lines.

With `COc1cc(O)c2c(c1)[C@H]1O[C@@H]1C[C@H](O)[C@H](O)C(=O)/C=C\C[C@H](C)OC2=O` [Hypothemycin, hypothemycin], in the series with Tetrahymena furgasoni, the “activity against Tetrahymena furgasoni” value is recorded as “active”. The “activity against Ustilago maydis” value with Ustilago maydis is listed as “active”. Besides, the “anti-tumor activity on laboratory tumor cell lines” value in series [1] is “exhibits anti-tumor activity”.
